Here are results for 27 molecules from patent US20240150365A1 (Hotspot Therapeutics, Inc., priority 2022, published 2024).

SMILES strings stand for the structures. pIC50: −log10 of the molar value. Like-named read-outs stand apart in the source and are kept apart here. A value given as a limit tells only on which side of the number the result lay.

One test relates to NF-kB. In words: NF-kB reporter assay in Jurkat cells stimulated with aCD3/aCD28/PMA. It is filed as cell-based. The conditions noted are these: Homo sapiens, Jurkat, read-out: NF-kB Reporter Assay IC50. Summed up: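 Stimulation used final aCD3 5 μg/mL, aCD28 5 μg/mL and PMA 0.03 μg/mL for 4 hr at 37° C, after 1 hr compound pretreatment of 25,000 serum-starved Jurkat cells per well. One-Glo luminescence gave IC50 values.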

Another test has as its target T1, MALT1 (Homo sapiens, UniProt Q9UDY8).
T1 construct: Avi-tagged FL MALT-1 (Pharmaron, stored at −70° C.); Avi tag
T1 sequence (Q9UDY8 1-824): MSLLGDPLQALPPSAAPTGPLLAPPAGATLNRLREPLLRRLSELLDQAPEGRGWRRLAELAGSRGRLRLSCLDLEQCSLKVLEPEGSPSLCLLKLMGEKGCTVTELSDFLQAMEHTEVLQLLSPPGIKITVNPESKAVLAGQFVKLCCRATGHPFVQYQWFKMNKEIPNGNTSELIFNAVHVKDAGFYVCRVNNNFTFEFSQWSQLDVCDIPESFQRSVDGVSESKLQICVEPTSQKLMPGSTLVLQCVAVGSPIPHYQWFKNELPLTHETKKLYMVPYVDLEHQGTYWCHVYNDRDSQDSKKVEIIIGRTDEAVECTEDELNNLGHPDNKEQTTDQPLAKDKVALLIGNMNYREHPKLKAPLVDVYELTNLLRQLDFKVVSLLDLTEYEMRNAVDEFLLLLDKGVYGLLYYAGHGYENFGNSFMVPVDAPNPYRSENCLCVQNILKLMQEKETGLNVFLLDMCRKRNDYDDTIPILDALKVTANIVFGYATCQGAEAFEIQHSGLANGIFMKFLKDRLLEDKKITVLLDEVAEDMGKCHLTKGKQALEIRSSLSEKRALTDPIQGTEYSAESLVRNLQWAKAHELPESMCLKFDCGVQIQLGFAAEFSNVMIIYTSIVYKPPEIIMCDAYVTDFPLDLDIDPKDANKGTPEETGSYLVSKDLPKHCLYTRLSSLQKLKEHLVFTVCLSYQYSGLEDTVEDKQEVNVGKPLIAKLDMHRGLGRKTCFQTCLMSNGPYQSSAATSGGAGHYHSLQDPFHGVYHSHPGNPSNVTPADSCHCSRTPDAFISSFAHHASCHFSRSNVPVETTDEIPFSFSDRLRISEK
In words: MALT-1 Fluorogenic Peptide Cleavage Assay (MALT1 inhibition assay). It is filed as biochemical. The conditions noted are these: Avi-tagged FL MALT-1, Ac-LRSR-AMC peptide substrate, 30 min pre-incubation, 90 min reaction. Summed up: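 IC50 from sigmoidal fits of % inhibition, with fluorescence (ex 342, em 441 nm) from AMC released from the quenched LRSR peptide after 90 min at room temperature. Full-length Avi-tagged MALT1 saw compound for 30 min first; final DMSO 2%.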

The mark [1] stands for this setting: Jurkat cells, 1 hr compound incubation, aCD3/aCD28/PMA stimulation 4 hr, One-Glo readout.

As to `Cc1cc(NS(=O)(=O)c2ccc(-n3cc(C(F)(F)F)cn3)nc2)c2c(cnn2C)c1` [Example I-71, N-(1,5-Dimethyl-1H-Indazol-7-yl)-6-(4-(Trifluoromethyl)-1H-Pyrazol-1-yl) Pyridine-3-Sulfonamide], the pIC50 (in general, −log10 of the IC50, conventionally taken in molar units) in the test on NF-kB (setting [1]) was > 6.40; against MALT1 it was 5.60 to 6.00.
The corresponding values for `COc1cc(NS(=O)(=O)c2ccc(-n3cc(C(F)(F)F)cn3)nc2)c2c(cnn2C)c1` [Example I-72, N-(5-Methoxy-1-Methylindazol-7-yl)-6-[4-(Trifluoromethyl)Pyrazol-1-Yl]Pyridine-3-Sulfonamide] are > 6.40 and 5.60 to 6.00.
On to `Cn1ncc2cc(F)cc(NS(=O)(=O)c3ccc(-n4cc(C(F)(F)F)cn4)nc3)c21` [Example I-73, N-(5-Fluoro-1-Methylindazol-7-yl)-6-[4-(Trifluoromethyl)Pyrazol-1-Yl]Pyridine-3-Sulfonamide], for which the pIC50 in the test on NF-kB (setting [1]) and against MALT1 was 6.00 to 6.40 each time.
`COc1ncc2cnn(C)c2c1NS(=O)(=O)c1ccc(-n2cc(C(F)(F)F)cn2)nc1` [Example I-74, N-(6-methoxy-1-methyl-1H-pyrazolo[4,3-c]pyridin-7-yl)-6-(4-(trifluoromethyl)-1H-pyrazol-1-yl)pyridine-3-sulfonamide]: the pIC50 with NF-kB and at MALT1 was > 6.40 throughout.
Take `[2H]C([2H])([2H])n1ncc2ccc(OC)c(NS(=O)(=O)c3ccc(-n4cc(C(F)(F)F)cn4)nc3)c21` [Example I-75, N-(6-Methoxy-1-(Methyl-D3)-1H-Indazol-7-yl)-6-(4-(Trifluoromethyl)-1H-Pyrazol-1-yl)Pyridine-3-Sulfonamide]: the pIC50 in the test with NF-kB (setting [1]) and at MALT1 was > 6.40 each time.
As for `Cn1ncc2cccc(NS(=O)(=O)c3ccc(-c4cc5ccccc5[nH]4)nc3)c21` [Example I-76, 6-(1H-Indol-2-yl)-N-(1-Methyl-1H-Indazol-7-yl)Pyridine-3-Sulfonamide], the pIC50 in the test with NF-kB (setting [1]) was > 6.40; on MALT1, < 5.60.
For the molecule `Cn1ncc2cccc(NS(=O)(=O)c3ccc(-c4cc5cnccc5[nH]4)nc3)c21` [Example I-77, N-(1-Methyl-1H-Indazol-7-yl)-6-(1H-Pyrrolo[3,2-C]Pyridin-2-yl)Pyridine-3-Sulfonamide], the pIC50 with NF-kB (setting [1]) and at MALT1 was < 5.60 each time.
As to `Cn1ncc2cccc(NS(=O)(=O)c3ccc(-c4cc[nH]c4)nc3)c21` [Example I-79, N-(1-Methyl-1H-Indazol-7-yl)-6-(1H-Pyrrol-3-yl)Pyridine-3-Sulfonamide], the values for the pIC50 in the test on NF-kB (setting [1]) and against MALT1 were 5.60 to 6.00 and < 5.60, respectively.
The corresponding values for `Cn1ncc2cccc(NS(=O)(=O)c3ccc(-c4ccc[nH]4)nc3)c21` [Example I-80, N-(1-Methyl-1H-Indazol-7-yl)-6-(1H-Pyrrol-2-yl)Pyridine-3-Sulfonamide] are 5.60 to 6.00 and < 5.60.
Taken in the same sequence, the figures for `Cn1ncc2cccc(NS(=O)(=O)c3ccc(-c4ccn[nH]4)nc3)c21` [Example I-81, N-(1-Methyl-1H-Indazol-7-yl)-6-(1H-Pyrazol-5-yl)Pyridine-3-Sulfonamide] were 6.00 to 6.40 and < 5.60.
The corresponding values for `Cn1nccc1-c1ccc(S(=O)(=O)Nc2cccc3cnn(C)c23)cn1` [Example I-82, N-(1-Methyl-1H-Indazol-7-yl)-6-(1-Methyl-1H-Pyrazol-5-yl)Pyridine-3-Sulfonamide] are 6.00 to 6.40 and < 5.60.
As to `Cc1cc(-c2ccc(S(=O)(=O)Nc3cccc4cnn(C)c34)cn2)[nH]n1` [Example I-83, N-(1-Methyl-1H-Indazol-7-yl)-6-(3-Methyl-1H-Pyrazol-5-yl)Pyridine-3-Sulfonamide], the pIC50 is > 6.40 with NF-kB (setting [1]) and < 5.60 against MALT1.
For the molecule `Cn1ncc2cccc(NS(=O)(=O)c3ccc(-c4cc(C(F)(F)F)n[nH]4)nc3)c21` [Example I-84, N-(1-Methyl-1H-Indazol-7-yl)-6-(3-(Trifluoromethyl)-1H-Pyrazol-5-yl)Pyridine-3-Sulfonamide], the pIC50 in the test on NF-kB (setting [1]) was > 6.40; against MALT1, 6.00 to 6.40.
Taken in the same sequence, the figures for `Cn1ncc2cccc(NS(=O)(=O)c3ccc(-c4c[nH]nc4C(F)(F)F)nc3)c21` [Example I-85, N-(1-Methyl-1H-Indazol-7-yl)-6-(3-(Trifluoromethyl)-1H-Pyrazol-4-yl)Pyridine-3-Sulfonamide] were > 6.40 and < 5.60.
The corresponding values for `Cn1ncc2cccc(NS(=O)(=O)c3ccc(-c4cnn(C(F)F)c4)nc3)c21` [Example I-86, 6-(1-(Difluoromethyl)-1H-Pyrazol-4-yl)-N-(1-Methyl-1H-Indazol-7-yl)Pyridine-3-Sulfonamide] are > 6.40 and < 5.60.
Taken in the same sequence, the figures for `Cc1nn(C)cc1-c1ccc(S(=O)(=O)Nc2cccc3cnn(C)c23)cn1` [Example I-87, 6-(1,3-Dimethyl-1H-Pyrazol-4-yl)-N-(1-Methyl-1H-Indazol-7-yl)Pyridine-3-Sulfonamide] were > 6.40 and < 5.60.
Take `Cc1c(-c2ccc(S(=O)(=O)Nc3cccc4cnn(C)c34)cn2)cnn1C` [Example I-88, 6-(1,5-Dimethyl-1H-Pyrazol-4-yl)-N-(1-Methyl-1H-Indazol-7-yl)Pyridine-3-Sulfonamide]: the pIC50 in the test on NF-kB (setting [1]) is > 6.40; against MALT1, < 5.60.
The corresponding values for `Cc1nn(C)c(C)c1-c1ccc(S(=O)(=O)Nc2cccc3cnn(C)c23)cn1` [Example I-89, N-(1-Methyl-1H-Indazol-7-yl)-6-(1,3,5-Trimethyl-1H-Pyrazol-4-yl)Pyridine-3-Sulfonamide] are > 6.40 and < 5.60.
Regarding `Cn1cncc1-c1ccc(S(=O)(=O)Nc2cccc3cnn(C)c23)cn1` [Example I-90, 6-(1-Methyl-1H-Imidazol-5-yl)-N-(1-Methyl-1H-Indazol-7-yl)Pyridine-3-Sulfonamide], the results for the pIC50 in the test with NF-kB (setting [1]) and on MALT1 were 6.00 to 6.40 and < 5.60, respectively.
Regarding `Cc1cc(-c2ccc(S(=O)(=O)Nc3cccc4cnn(C)c34)cn2)on1` [Example I-98, N-(1-Methyl-1H-Indazol-7-yl)-6-(3-Methylisoxazol-5-yl)Pyridine-3-Sulfonamide], the pIC50 is > 6.40 in the test with NF-kB (setting [1]) and < 5.60 on MALT1.
Taken in the same sequence, the figures for `Cn1ncc2cccc(NS(=O)(=O)c3ccc(-c4cncs4)nc3)c21` [Example I-101, N-(1-Methyl-1H-Indazol-7-yl)-6-(Thiazol-5-yl)Pyridine-3-Sulfonamide] were > 6.40 and > 6.40.
For `Cc1nc(C)c(-c2ccc(S(=O)(=O)Nc3cccc4cnn(C)c34)cn2)s1` [Example I-103, 6-(2,4-Dimethylthiazol-5-yl)-N-(1-Methyl-1H-Indazol-7-yl)Pyridine-3-Sulfonamide], the pIC50 with NF-kB (setting [1]) is > 6.40; against MALT1, 6.00 to 6.40.
The corresponding values for `COc1ccc2cnn(C)c2c1N(C)S(=O)(=O)c1ccc(-c2cc(C(F)(F)F)nn2C)nc1` [Example I-104, N-(6-Methoxy-1-Methyl-1H-Indazol-7-yl)-N-Methyl-6-(1-Methyl-3-(Trifluoromethyl)-1H-Pyrazol-5-yl)Pyridine-3-Sulfonamide] are > 6.40 and > 6.40.
On to `Cn1ncc2cccc(NS(=O)(=O)c3ccc(-n4cc(C(N)=O)cn4)nc3)c21` [Example I-105, 1-(5-(N-(1-Methyl-1H-Indazol-7-yl)Sulfamoyl)Pyridin-2-yl)-1H-Pyrazole-4-Carboxamide], for which the pIC50 in the test with NF-kB (setting [1]) and against MALT1 was < 5.60 throughout.
As to `COc1ccc2[nH]nc(C)c2c1NS(=O)(=O)c1ccc(-n2cc(C(F)(F)F)cn2)nc1` [Example I-106, N-(5-Methoxy-3-Methyl-1H-Indazol-4-yl)-6-(4-(Trifluoromethyl)-1H-Pyrazol-1-yl)Pyridine-3-Sulfonamide], the pIC50 in the test with NF-kB (setting [1]) and on MALT1 was > 6.40 in each case.
Regarding `Cn1cc(-c2ccc(S(=O)(=O)Nc3cccc4cnn(C)c34)cn2)cn1` [Example I-107, N-(1-Methyl-1H-Indazol-7-yl)-6-(1-Methyl-1H-Pyrazol-4-yl)Pyridine-3-Sulfonamide], the pIC50 with NF-kB (setting [1]) was > 6.40; against MALT1 it was < 5.60.
The corresponding values for `COc1cc(-c2ccc(S(=O)(=O)Nc3cccc4cnn(C)c34)cn2)ccn1` [Example I-108, 2′-Methoxy-N-(1-Methyl-1H-Indazol-7-yl)-[2,4′-Bipyridine]-5-Sulfonamide] are > 6.40 and < 5.60.
